Experimental findings from patent US20050043371A1, “Aminoalcohol derivatives and their use as beta 3 adrenergic agonists” (Fujisawa Pharmaceutical Co. Ltd., priority 1999, published 2005) are described below.

Data set [1] has as its system anesthetized dog. Briefly: Effect on the increase in intravesical pressure induced by carbachol in anesthetized dog. The following applies: 0.01 mg/kg injected intravenously 5 minutes before carbachol (1.8 μg/kg); female Beagle dogs under halothane anesthesia; N = 3; P < 0.01 vs Control (4.5 ± 0.3). In kind it is in vivo. As to the method:
Effect on the increase in intravesical pressure induced by carbachol in anesthetized dog
Female Beagle dogs weighing 8.0-15.0 kg were fasted for 24 hours and maintained under halothane anesthesia. A 12F Foley catheter was lubricated with water soluble jelly, inserted into the urethral orifice and advanced approximately 10 cm until the balloon tip was placed well inside the bladder. The balloon was then inflated with 5 ml of room air and catheter slowly withdrawn just part the first resistance that is felt at the bladder neck. Urine was completely drained out through the catheter, and 30 ml of biological saline was infused. The catheter was connected to pressure transducer, and intravesical pressure was continuously recorded. The test compound was injected intravenously at 5 minutes before the administration of carbachol (1.8 μg/kg).

Take `CC(CC(c1ccc(O)cc1)c1ccc(O)cc1)NC[C@H](O)COc1ccccc1.Cl` (mixture of isomers) [Test Compound (1), (2S)-1-[[(2RS)-4,4-bis(4-hydroxyphenyl)-2-butyl]amino]-3-phenoxy-2-propanol hydrochloride] [listing 1 of 2 here]: in data set [1], the “Increase in intravescial pressure (mmHg)” value was found to be 2.5 ± 0.3 mmHg.
The melting point is the temperature, or range, at which the solid turns liquid. For the compound `COc1ccc(C(C[C@@H](C)NC[C@H](O)COc2ccccc2)c2ccc(OC)cc2)cc1.O=C(O)C(=O)O`, the melting point is 121 to 123 °C.
Consider `CC(CC(c1ccc(O)cc1)c1ccc(O)cc1)NC[C@H](O)COc1ccccc1.Cl` (mixture of isomers) [Test Compound (1), (2S)-1-[[(2RS)-4,4-bis(4-hydroxyphenyl)-2-butyl]amino]-3-phenoxy-2-propanol hydrochloride] [listing 2 of 2 here], for which the melting point is 73 °C (dec.).
For the compound `COc1ccc(C(C[C@H](C)NC[C@H](O)COc2ccccc2)c2ccc(OC)cc2)cc1.O=C(O)C(=O)O`, the melting point lay in the range of 79 to 94 °C.
